According to PubChem BioAssay (NCI):
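Following 48 hours of exposure in 96-well plates, responses at five concentrations were used to interpolate endpoints linearly. TGI is the concentration that stops growth completely.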

Key:
Experiment in all cases: DTP human tumour cell line panel, 48 h
SN12C renal = system: SN12C renal
SW-620 colon = system: SW-620 colon
RPMI-8226 leukemia = system: RPMI-8226 leukemia
SR leukemia = system: SR leukemia
K-562 leukemia = system: K-562 leukemia
786-0 renal = system: 786-0 renal
SK-OV-3 ovarian = system: SK-OV-3 ovarian
SK-MEL-28 melanoma = system: SK-MEL-28 melanoma
UACC-257 melanoma = system: UACC-257 melanoma
IGROV1 ovarian = system: IGROV1 ovarian
ACHN renal = system: ACHN renal
HT29 colon = system: HT29 colon
SF-539 CNS = system: SF-539 CNS
MCF7 breast = system: MCF7 breast
MALME-3M melanoma = system: MALME-3M melanoma
A549 NSCLC = system: A549 NSCLC
TK-10 renal = system: TK-10 renal
OVCAR-3 ovarian = system: OVCAR-3 ovarian
OVCAR-4 ovarian = system: OVCAR-4 ovarian
SF-295 CNS = system: SF-295 CNS
A498 renal = system: A498 renal
HOP-62 NSCLC = system: HOP-62 NSCLC
CCRF-CEM leukemia = system: CCRF-CEM leukemia
U251 CNS = system: U251 CNS
NCI-H226 lung = system: NCI-H226 lung
HCT-15 colon = system: HCT-15 colon
CAKI-1 renal = system: CAKI-1 renal
MOLT-4 leukemia = system: MOLT-4 leukemia
SK-MEL-2 melanoma = system: SK-MEL-2 melanoma
PC-3 prostate = system: PC-3 prostate
NCI-H460 lung = system: NCI-H460 lung
NCI/ADR-RES ovarian = system: NCI/ADR-RES ovarian
COLO 205 colon = system: COLO 205 colon
RXF 393 renal = system: RXF 393 renal
UO-31 renal = system: UO-31 renal
KM12 colon = system: KM12 colon
HS 578T breast = system: HS 578T breast
M14 melanoma = system: M14 melanoma
MDA-N = system: MDA-N
SK-MEL-5 melanoma = system: SK-MEL-5 melanoma
DU-145 prostate = system: DU-145 prostate
UACC-62 melanoma = system: UACC-62 melanoma
MDA-MB-231 breast = system: MDA-MB-231 breast
NCI-H522 lung = system: NCI-H522 lung
HCT-116 colon = system: HCT-116 colon
HCC-2998 colon = system: HCC-2998 colon
MDA-MB-435 = system: MDA-MB-435
HL-60(TB) leukemia = system: HL-60(TB) leukemia
NCI-H23 lung = system: NCI-H23 lung
SNB-19 CNS = system: SNB-19 CNS
LOX IMVI melanoma = system: LOX IMVI melanoma
SF-268 CNS = system: SF-268 CNS
EKVX NSCLC = system: EKVX NSCLC
OVCAR-5 ovarian = system: OVCAR-5 ovarian
OVCAR-8 ovarian = system: OVCAR-8 ovarian
BT-549 breast = system: BT-549 breast
HOP-92 NSCLC = system: HOP-92 NSCLC
T-47D breast = system: T-47D breast
SNB-75 CNS = system: SNB-75 CNS

Measured: TGI

O=c1[nH]c2ccccc2nc1/C=C(\O)C(F)F
not listed: HOP-92 NSCLC | T-47D breast | SNB-75 CNS
> 100 µM: all other assays above

O=C(OCCN1CCCCC1)C(c1ccccc1)C1(O)CCSCC1 (centres undefined)
not listed: BT-549 breast
> 100 µM: all other assays above
